# In a melting point compilation (Tetko et al.):
row,Structure (SMILES),melting point
1,O=C(O)CCC(=O)N1CC(=O)Nc2ccccc21,181 to 183 °C
2,Cc1cc(C)nc(-n2nc(C)cc2NC(=O)CCl)n1,185 to 187 °C
3,Cc1ccc(C(C)C)c(OC(C)C(=O)O)c1 (stereo not drawn),61 to 63 °C
4,CC(C)(C)c1ccc2oc(N)nc2c1,146 to 148 °C
5,O=Cc1csc(-c2ccc(F)cc2)n1,99 to 101 °C
6,CCOC(=O)c1ncccc1N,127 to 129 °C
7,N#Cc1cc(C(F)(F)F)ccc1C(=O)O,113 to 115 °C
8,Cc1c(C(=O)O)cnn1-c1ccc(Br)cc1,211 to 213 °C
9,Nc1ccc(Cl)c(C(=O)NC2CC2)c1,126 to 128 °C
10,Nc1cc(C(F)(F)F)ccc1Oc1ccc(Br)cc1,19 to 21 °C
11,Cc1cnn(-c2ccc(C(N)=O)cc2N)c1,164 to 166 °C
12,COC(=O)c1cc(CBr)cc(C(=O)OC)c1,139 to 141 °C
13,CC(CO)NCc1ccccc1Cl (stereo not drawn),54 to 56 °C
14,O=C(O)c1ccn(-c2c(Cl)cc([N+](=O)[O-])cc2Cl)n1,206 to 208 °C
15,O=C(O)COc1cc(F)ccc1F,151 to 153 °C
16,Cc1ccc(C(=O)Cc2ccccc2)cc1C,93 to 95 °C
17,Cc1ccc(F)c(-n2nnnc2CCl)c1,51 to 53 °C
18,CC1CC(C(=O)O)CC(C)(C)C1 (stereo not drawn),39 to 41 °C
19,CC(NC(=O)CCl)c1ccc2c(c1)CCCC2 (stereo not drawn),134 to 136 °C
20,O=C(O)CNC(=O)c1ccc(C(F)(F)F)cc1,154 to 156 °C
21,CC(O)(CN)c1ccc(F)cc1 (stereo not drawn),69 to 71 °C
22,O=C(O)c1ncoc1-c1ccco1,171 to 173 °C
23,COc1ccccc1C1(C)CC1C(=O)O (stereo not drawn),166 to 168 °C
24,COc1ccc2nc(CCl)[nH]c2n1,151 to 153 °C
25,CS(=O)(=O)Cc1cc(F)ccc1N,126 to 128 °C

row,Structure (SMILES),melting point
1,CCCN1CCc2c(sc(N)c2C(N)=O)C1,139 to 141 °C
2,O=C(O)c1ccc(S(=O)(=O)Cl)c(F)c1,188 to 190 °C
3,OC(CNCc1ccccc1)C(F)(F)F (stereo not drawn),58 to 60 °C
4,Cc1ccc(-c2nc(C)c(C(=O)O)s2)c(C)c1,218 to 220 °C
5,Cn1c(C2CC2)nc2cnccc21,100 to 102 °C
6,Cc1cccc(S(N)(=O)=O)n1,165 to 167 °C
7,NC(=O)CNc1ccc(C(=O)O)cc1,249 to 251 °C
8,COC(=O)C(=O)CC(=O)c1ccc(OC)cc1OC,101 to 103 °C
9,Cc1oc(C)c(C(=O)O)c1C,131 to 133 °C
10,O=C(O)CCCS(=O)(=O)N1CCCC1,130 to 132 °C
11,NC(=S)Cn1nc2ccccn2c1=O,204 to 206 °C
12,ON=Cc1csnn1,136 to 138 °C
13,O=C(O)CCS(=O)(=O)c1ccc(Br)cc1,151 to 153 °C
14,O=C(CCl)N1CCN(S(=O)(=O)c2ccc3c(c2)CCC3)CC1,120 to 122 °C
15,N#Cc1cccnc1N1CCCC1,36 to 38 °C
16,COc1ccccc1C(N)C(=O)O (stereo not drawn),169 to 171 °C
17,Cc1ccc(CNC(=O)CC#N)cc1,127 to 129 °C
18,NS(=O)(=O)c1ccc([N+](=O)[O-])s1,139 to 141 °C
19,O=C(O)C=Cc1cc(Br)ccc1OCc1ccccc1Cl,192 to 194 °C
20,COc1c(C#N)cnc2ccccc12,106 to 108 °C
21,Cc1cccc(C2CC2C(=O)O)c1 (stereo not drawn),88 to 90 °C
22,CCNC1=NCC(c2ccccc2)S1 (stereo not drawn),99 to 101 °C
23,CC1(c2ccc(Cl)s2)NC(=O)NC1=O (stereo not drawn),183 to 185 °C
24,COC(=O)C(Cc1c[nH]cn1)NC(=O)CCc1ccccc1 (stereo not drawn),152 to 154 °C
25,Nc1cc(=O)[nH]n1-c1ccccc1,109 to 111 °C

row,Structure (SMILES),melting point
1,NCC(O)COc1ccc(F)cc1 (stereo not drawn),71 to 73 °C
2,O=C(O)CCc1ccc2ccccc2n1,107 to 109 °C
3,CS(=O)(=O)N1CCN(CCN)CC1,10 to 12 °C
4,CCC(C)[C@H](NC(=O)N1CCCC1)C(=O)O (stereo partly drawn),147 to 149 °C
5,O=C(c1ccccc1)c1ccc(CBr)cc1,109 to 112 °C
6,Nc1cc(-c2ccco2)nn1-c1ccc(F)cc1F,120 to 122 °C
7,NCCNc1ccc(-c2ccccc2)nn1,113 to 115 °C
8,Sc1nnnn1CCc1ccccn1,193 to 195 °C
9,O=C(O)C=Cc1cc(Cl)ccc1OCc1ccccc1Cl,195 to 197 °C
10,Clc1nnc(-c2ccccc2Cl)s1,93 to 95 °C
11,Cc1cc(C(=O)O)c2c(C)nn(C)c2n1,262 to 264 °C
12,CCOc1ccccc1OCC(=O)O,44 to 46 °C
13,CC(C)COc1ccc(-c2nn(-c3ccccc3)cc2C=O)cc1,100 to 102 °C
14,Cc1nn(C(C)C)c(C)c1N,58 to 60 °C
15,CCOC(=O)C1=C(C)NC(=O)NC1CCl (stereo not drawn),169 to 171 °C
16,Cc1cccc(NC(=O)CCCCl)c1,137 to 139 °C
17,Cn1c(N)nc2cc(F)ccc21,152 to 154 °C
18,O=C(O)c1ccc2ccc(Cl)cc2n1,179 to 181 °C
19,CC(C)c1c(C(=O)O)nnn1-c1ccc(F)cc1,146 to 148 °C
20,CC(=O)NCC(O)c1ccccc1 (stereo not drawn),119 to 121 °C
21,CC(C)(C)OC(=O)NC(C)(C(=O)O)C1CC1 (stereo not drawn),140 to 142 °C
22,CC(Sc1ccnc2cc(Cl)ccc12)C(=O)O (stereo not drawn),201 to 203 °C
23,O=C1OCCN1c1ccc(Cl)c([N+](=O)[O-])c1,163 to 165 °C
